From ChEMBL document CHEMBL2331486, “Identification of diaryl 5-amino-1,2,4-oxadiazoles as tubulin inhibitors: the special case of 3-(2-fluorophenyl)-5-(4-methoxyphenyl)amino-1,2,4-oxadiazole” (Bioorg Med Chem Lett, 2013)
Activity calls are given as the source filed them. The rule behind the calls is not given here.

Legend:
[1] = molecular target: Tubulin; assay: Inhibition of tubulin (unknown origin) assembly after 20 mins by turbidimetric analysis; assay type: protein-complex assay, Homo sapiens
[2] = molecular target: T1, Tubulin (Homo sapiens) (UniProt P68371+Q9H4B7+P0DPH7+P68366+Q13509+Q71U36+P04350+Q3ZCM7+P07437+P68363+Q9BQE3+Q6PEY2+Q13885+Q9BVA1+Q9BUF5); details: at 1 µM
Description: Displacement of [3H]colchicine from tubulin (unknown origin) at 1 uM after 10 mins

[3] = molecular target: T1, Tubulin (Homo sapiens); details: at 5 µM
Description: Displacement of [3H]colchicine from tubulin (unknown origin) at 5 uM after 10 mins

[4] = tested on: MDA-MB-231; assay: Growth inhibition of human MDA-MB-231 cells; assay type: functional
[5] = tested on: PANC-1; assay: Growth inhibition of human PANC1 cells; assay type: functional
[6] = tested on: HCT-116; assay: Growth inhibition of human HCT116 cells; assay type: functional
[7] = tested on: DU-145; assay: Growth inhibition of human DU145 cells; assay type: functional
[8] = tested on: PC-3; assay: Growth inhibition of human PC3 cells; assay type: functional
[9] = Growth inhibition of human NCI60 cells; assay type: functional
[10] = tested on: T47D; assay: Cytotoxicity against human T47D cells; assay type: functional
[11] = tested on: MDA-MB-468; assay: Cytotoxicity against human MDA-MB-468 cells; assay type: functional
[12] = tested on: MDA-MB-231; assay: Cytotoxicity against human MDA-MB-231 cells; assay type: functional
[13] = Cytotoxicity against human Hs 578T cells; assay type: functional
[14] = tested on: DU-145; assay: Cytotoxicity against human DU145 cells; assay type: functional
[15] = tested on: MCF7; assay: Cytotoxicity against human MCF7 cells; assay type: functional
[16] = tested on: TK-10; assay: Cytotoxicity against human TK10 cells; assay type: functional
[17] = tested on: UO-31; assay: Cytotoxicity against human UO31 cells; assay type: functional
[18] = tested on: PC-3; assay: Cytotoxicity against human PC3 cells; assay type: functional
[19] = tested on: RXF 393; assay: Cytotoxicity against human RXF393 cells; assay type: functional
[20] = tested on: SN12C; assay: Cytotoxicity against human SN12C cells; assay type: functional
[21] = tested on: ACHN; assay: Cytotoxicity against human ACHN cells; assay type: functional
[22] = tested on: CAKI-1; assay: Cytotoxicity against human Caki1 cells; assay type: functional
[23] = tested on: SK-OV-3; assay: Cytotoxicity against human SKOV3 cells; assay type: functional
[24] = tested on: A498; assay: Cytotoxicity against human A498 cells; assay type: functional
[25] = tested on: OVCAR-4; assay: Cytotoxicity against human OVCAR4 cells; assay type: functional
[26] = tested on: OVCAR-5; assay: Cytotoxicity against human OVCAR5 cells; assay type: functional
[27] = tested on: OVCAR-8; assay: Cytotoxicity against human OVCAR8 cells; assay type: functional
[28] = tested on: IGROV-1; assay: Cytotoxicity against human IGROV1 cells; assay type: functional
[29] = tested on: OVCAR-3; assay: Cytotoxicity against human OVCAR3 cells; assay type: functional
[30] = tested on: UACC-257; assay: Cytotoxicity against human UACC257 cells; assay type: functional
[31] = tested on: UACC-62; assay: Cytotoxicity against human UACC62 cells; assay type: functional
[32] = tested on: SK-MEL-28; assay: Cytotoxicity against human SK-MEL-28 cells; assay type: functional
[33] = tested on: SK-MEL-5; assay: Cytotoxicity against human SK-MEL-5 cells; assay type: functional
[34] = tested on: MDA-MB-435; assay: Cytotoxicity against human MDA-MB-435 cells; assay type: functional
[35] = tested on: SK-MEL-2; assay: Cytotoxicity against human SK-MEL-2 cells; assay type: functional
[36] = tested on: SNB-75; assay: Cytotoxicity against human SNB75 cells; assay type: functional
[37] = tested on: U-251; assay: Cytotoxicity against human U251 cells; assay type: functional
[38] = tested on: Malme-3M; assay: Cytotoxicity against human MALME-3M cells; assay type: functional
[39] = tested on: SF-539; assay: Cytotoxicity against human SF539 cells; assay type: functional
[40] = tested on: SNB-19; assay: Cytotoxicity against human SNB19 cells; assay type: functional
[41] = tested on: SF-268; assay: Cytotoxicity against human SF268 cells; assay type: functional
[42] = tested on: SF-295; assay: Cytotoxicity against human SF295 cells; assay type: functional
[43] = tested on: HT-29; assay: Cytotoxicity against human HT-29 cells; assay type: functional
[44] = tested on: KM12; assay: Cytotoxicity against human KM12 cells; assay type: functional
[45] = tested on: SW-620; assay: Cytotoxicity against human SW620 cells; assay type: functional
[46] = tested on: COLO 205; assay: Cytotoxicity against human COLO205 cells; assay type: functional
[47] = tested on: HCT-15; assay: Cytotoxicity against human HCT15 cells; assay type: functional
[48] = tested on: NCI-H460; assay: Cytotoxicity against human NCI-H460 cells; assay type: functional
[49] = tested on: NCI-H522; assay: Cytotoxicity against human NCI-H522 cells; assay type: functional
[50] = tested on: NCI-H226; assay: Cytotoxicity against human NCI-H226 cells; assay type: functional
[51] = tested on: NCI-H322M; assay: Cytotoxicity against human NCI-H322M cells; assay type: functional
[52] = tested on: HOP-62; assay: Cytotoxicity against human HOP62 cells; assay type: functional
[53] = tested on: HOP-92; assay: Cytotoxicity against human HOP92 cells; assay type: functional
[54] = tested on: A549; assay: Cytotoxicity against human A549 cells; assay type: functional
[55] = Cytotoxicity against human EKVX cells; assay type: functional
[56] = tested on: MOLT-4; assay: Cytotoxicity against human MOLT4 cells; assay type: functional
[57] = tested on: RPMI-8226; assay: Cytotoxicity against human RPMI8226 cells; assay type: functional
[58] = tested on: K562; assay: Cytotoxicity against human K562 cells; assay type: functional
[59] = tested on: CCRF-CEM; assay: Cytotoxicity against human CCRF-CEM cells; assay type: functional
[60] = tested on: HL-60(TB); assay: Cytotoxicity against human HL-60(TB) cells; assay type: functional
[61] = Growth inhibition of human KBV1a cells; assay type: functional; details: pooled result: one value given for 5 cell lines, strains, targets or settings

## CCOc1ccc(Nc2nc(-c3cccc(OC)c3OC)no2)cc1
[1]
  IC50: 1.8 µM
[2]
  inhibition: 20%
[3]
  inhibition: 56%

## COc1ccc(Nc2nc(-c3cccc(OC)c3)no2)cc1
[4]
  GI50: 0.00977 µM
[5]
  GI50: 0.00977 µM
[6]
  GI50: 0.00977 µM
[7]
  GI50: 0.00977 µM
[8]
  GI50: 0.00977 µM
[1]
  IC50: 1.9 µM
[2]
  inhibition: 58%
[3]
  inhibition: 90%

## Fc1ccccc1Nc1nc(-c2ccccc2)no1
[2]
  inhibition: inactive
[3]
  inhibition: inactive

## CCOC(=O)c1cccc(Nc2nc(-c3ccc(OC)cc3)no2)c1
[2]
  inhibition: inactive
[3]
  inhibition: inactive

## COc1ccc(Nc2nc(-c3cccc(OC)c3OC)no2)cc1
[9]
  GI50: 0.245 µM
[1]
  IC50: 2.6 µM
[2]
  inhibition: 31%
[3]
  inhibition: 68%

## CCOc1ccc(Nc2nc(-c3ccccc3F)no2)cc1
[1]
  IC50: 1.7 µM
[2]
  inhibition: 42%
[3]
  inhibition: 76%

## COc1ccc(OC)c(-c2noc(Nc3ccc4c(c3)OCO4)n2)c1
[9]
  GI50: 6.46 µM
[1]
  IC50: 2.5 µM
[2]
  inhibition: 21%
[3]
  inhibition: 52%

## COc1ccc(Nc2nc(-c3ccccc3F)no2)cc1
[10]
  GI50: 15.1 µM
[11]
  GI50: 1.07 µM
[12]
  GI50: 0.676 µM
[13]
  GI50: 0.389 µM
[14]
  GI50: 0.141 µM
[15]
  GI50: 0.263 µM
[16]
  GI50: 0.832 µM
[17]
  GI50: 0.339 µM
[18]
  GI50: 0.447 µM
[19]
  GI50: 0.155 µM
[20]
  GI50: 0.24 µM
[21]
  GI50: 0.49 µM
[22]
  GI50: 0.0646 µM
[23]
  GI50: 0.204 µM
[24]
  GI50: 0.229 µM
[25]
  GI50: 0.776 µM
[26]
  GI50: 0.724 µM
[27]
  GI50: 0.209 µM
[28]
  GI50: 0.389 µM
[29]
  GI50: 0.038 µM
[30]
  GI50: 14.1 µM
[31]
  GI50: 0.0537 µM
[32]
  GI50: 0.339 µM
[33]
  GI50: 0.151 µM
[34]
  GI50: 0.0199 µM
[35]
  GI50: 0.0398 µM
[36]
  GI50: 0.141 µM
[37]
  GI50: 0.0603 µM
[38]
  GI50: 0.0589 µM
[39]
  GI50: 0.107 µM
[40]
  GI50: 0.0871 µM
[41]
  GI50: 0.501 µM
[42]
  GI50: 0.0617 µM
[43]
  GI50: 0.0347 µM
[44]
  GI50: 0.112 µM
[45]
  GI50: 0.0479 µM
[46]
  GI50: 0.126 µM
[47]
  GI50: 0.0851 µM
[48]
  GI50: 0.0617 µM
[49]
  GI50: 0.0199 µM
[50]
  GI50: 2.19 µM
[51]
  GI50: 0.501 µM
[52]
  GI50: 0.135 µM
[53]
  GI50: 3.8 µM
[54]
  GI50: 0.0912 µM
[55]
  GI50: 1.51 µM
[56]
  GI50: 0.0912 µM
[57]
  GI50: 0.372 µM
[58]
  GI50: 0.0309 µM
[59]
  GI50: 0.138 µM
[60]
  GI50: 0.0257 µM
[9]
  GI50: 0.204 µM
[1]
  IC50: 1.1 µM
[2]
  inhibition: 68%
[3]
  inhibition: 91%

## COc1cccc(-c2noc(Nc3ccc(C)cc3)n2)c1OC
[9]
  GI50: 2.63 µM
[1]
  IC50: 3.6 µM
[2]
  inhibition: 24%
[3]
  inhibition: 52%

## CCOc1ccc(Nc2nc(-c3ccccc3)no2)cc1
[1]
  IC50: 1.2 µM
[2]
  inhibition: 49%
[3]
  inhibition: 82%

## COc1ccc(-n2cnnc2-c2cc(OC)c(OC)c(OC)c2)cc1
[61]
  GI50: 0.464 µM

## COc1ccc(OC)c(-c2noc(Nc3ccc(C)c(F)c3)n2)c1
[1]
  IC50: 3.5 µM
[2]
  inhibition: inactive
[3]
  inhibition: 53%

## CCc1ccc(Nc2nc(-c3cccc(OC)c3)no2)cc1
[1]
  IC50: 1.6 µM
[2]
  inhibition: 40%
[3]
  inhibition: 81%

## CCc1ccc(Nc2nc(-c3ccccc3F)no2)cc1
[1]
  IC50: 2.7 µM
[2]
  inhibition: 41%
[3]
  inhibition: 73%

## CCOc1ccc(Nc2nc(-c3cccc(OC)c3)no2)cc1
[9]
  GI50: 0.851 µM
[1]
  IC50: 1.6 µM
[2]
  inhibition: 37%
[3]
  inhibition: 78%

## COc1ccc(Nc2nc(-c3ccccc3)no2)cc1Cl
[1]
  IC50: 1.7 µM
[2]
  inhibition: 52%
[3]
  inhibition: 80%

## COc1ccc(/C=C\c2cc(OC)c(OC)c(OC)c2)cc1O [COMBRETASTATIN A4]
[9]
  GI50: 0.0148 µM

## Cc1ccc(Nc2nc(-c3ccccc3F)no2)cc1F
[9]
  GI50: 0.851 µM
[1]
  IC50: 1.6 µM
[2]
  inhibition: 52%
[3]
  inhibition: 81%

## COc1cccc(-c2noc(Nc3ccc(OC)c(Cl)c3)n2)c1
[9]
  GI50: 0.562 µM
[1]
  IC50: 2.3 µM
[2]
  inhibition: 36%
[3]
  inhibition: 73%

## COc1cccc(-c2noc(Nc3ccc4c(c3)OCCO4)n2)c1
[1]
  IC50: 1.9 µM
[2]
  inhibition: 38%
[3]
  inhibition: 76%

## COc1cccc(-c2noc(Nc3ccc(C)cc3)n2)c1
[1]
  IC50: 1.5 µM
[2]
  inhibition: 56%
[3]
  inhibition: 85%

## CCc1ccc(Nc2nc(-c3cc(OC)ccc3OC)no2)cc1
[9]
  GI50: 0.575 µM
[1]
  IC50: 1.8 µM
[2]
  inhibition: 36%
[3]
  inhibition: 65%

## COc1ccc(OC)c(-c2noc(Nc3ccc4c(c3)OCCO4)n2)c1
[1]
  IC50: 3.5 µM
[2]
  inhibition: 23%
[3]
  inhibition: 50%

## COc1ccc(OC)c(Nc2nc(-c3cccc(OC)c3OC)no2)c1
[2]
  inhibition: inactive
[3]
  inhibition: inactive

## COc1ccc(-n2cnnc2-c2cc(OC)c(OC)c(OC)c2)cc1F
[61]
  GI50: 0.556 µM

## COc1cccc(-c2noc(Nc3ccc4c(c3)OCO4)n2)c1
[9]
  GI50: 1.23 µM
[1]
  IC50: 2.2 µM
[2]
  inhibition: 40%
[3]
  inhibition: 76%

## Cc1ccc(Nc2nc(-c3ccccc3F)no2)cc1
[9]
  GI50: 0.603 µM
[1]
  IC50: 1.6 µM
[2]
  inhibition: 57%
[3]
  inhibition: 85%

## Cc1ccc(Nc2nc(-c3ccccc3)no2)cc1
[1]
  IC50: 1.4 µM
[2]
  inhibition: 61%
[3]
  inhibition: 88%
